We go through seven compounds from patent US11857515B2, “Branched amino acid surfactants for use in healthcare products” (AdvanSix Resins & Chemicals LLC, priority 2020, dated 2024).

Structures are written as SMILES. Where “and” joins values, the source holds several entries; their conditions need not be identical. Identical values can stand only once. Bounds are passed on as bounds.

What all share (format): physicochemical
Series [1] is described as follows: Critical micelle concentration (CMC) from surface tension versus concentration, Wilhelmy plate method. The note with it: for minimum surface tension that can be reached (plateau / asymptotic value) / critical micelle concentration (CMC): in water; for minimum surface tension that can be reached (plateau / asymptotic value) / surface tension at the CMC: pH=7; for surface tension at the CMC: from plot of surface tension versus concentration. From the text: As surfactant concentration increases, surface tension decreases. Once the surface is completely overlaid with surfactant molecules, micelles begin to form. This point represents the CMC, as well as the minimum surface tension. Further addition of surfactant will not further affect the surface tension. CMC may therefore be measured by observing the change in surface tension as a function of surfactant concentration. One such method for measuring this value is the Wilhemy plate method. A Wilhelmy plate is usually a thin iridium-platinum plate attached to a balance by a wire and placed perpendicularly to the air-liquid interface. The balance is used to measure the force exerted on the plate by wetting. This value is then used to calculate the surface tension (γ) according to Equation 1: γ=F/I cos θ Equation 1: wherein I is equal to the wetted perimeter (2w+2d, in which w and d are the […], respectively) and cos θ, the contact angle between the liquid and the plate, is assumed to be 0 in the absence of an extant literature value.
(§1) Nuclear magnetic resonance (NMR) spectroscopy was performed on a Bruker 500 MHz spectrometer. The critical micelle concentration (CMC) was determined by the Wilhelmy plate method at 23° C. with a tensiometer (DCAT 11, DataPhysics Instruments GmbH) equipped with a Pt—Ir plate. Dynamic surface tension was determined with a bubble pressure tensiometer (Krüss BP100, Krüss GmbH), at 23° C. Contact angle was determined with the optical contact angle goniometer (OCA 15 Pro, DataPhysics GmbH) equipped with a digital camera.
The critical micelle concentration (CMC) of the 6-((2-butyloctyl)oxy)-N,N,N-trimethyl-6-oxohexan-1-aminium iodide from Example 1a was tested. […] From the plot of the results, the surface tension at the CMC is equal to or less than about 27 mN/m.
The critical micelle concentration (CMC) of the 6-((2-butyloctyl)oxy)-N,N-dimethyl-6-oxohexan-1-aminium 4-methylbenzenesulfonate from Example 2a was tested. From the change in surface tension with concentration in water, the CMC was determined to be about 0.97 mmol. The plateau value of minimum surface tension that can be reached by this surfactant is about 27 mN/m, namely 27 mN/m±3 mN/m. […] From the plot of the results, the surface tension at the CMC is equal to or less than about 30 mN/m.

Series [2] can be described thus: Dynamic surface tension, bubble pressure tensiometer. As to conditions: 23° C. Here is the method:
One method by which dynamic surface tension is measured relies upon a bubble pressure tensiometer. This device measures the maximum internal pressure of a gas bubble that is formed in a liquid by means of a capillary. The measured value corresponds to the surface tension at a certain surface age, the time from the start of the bubble formation to the occurrence of the pressure maximum. The dependence of surface tension on surface age can be measured by varying the speed at which bubbles are produced.
as §1
The dynamic surface tension of the 6-((2-butyloctyl)oxy)-N,N-dimethyl-6-oxohexan-1-aminium 4-methylbenzenesulfonate from Example 2a was determined with a bubble pressure tensiometer which measures the change of surface tension of a freshly created air-water interface with time. FIG. 2B presents a plot of the surface tension versus time, showing that surface tension in the time interval between 10 and 100 ms drops rapidly from about 46 mN/m to about 30 mN/m. In the time interval from 100 to 8,000 ms, the surface tension drops slowly from 30 mN/m to about 27 mN/m, approaching asymptotically the saturation value of the surface tension at the CMC.

The nature of series [3]: Wetting properties: contact angle on solid substrates, optical contact angle goniometer. The note with it: 10x CMC.
From the text: Surface-active compounds may also be assessed by their wetting ability on solid substrates as measured by the contact angle. When a liquid droplet comes in contact with a solid surface in a third medium, such as air, a three-phase line forms among the liquid, the gas and the solid. The angle between the surface tension unit vector, acting at the three-phase line and tangent at the liquid droplet, and the surface is described as the contact angle. The contact angle (also known as wetting angle) is a measure of the wettability of a solid by a liquid. In the case of complete wetting, the liquid is completely spread over the solid and the contact angle is 0°. Wetting properties are typically measured for a given compound at the concentration of 1-10×CMC, however, it is not a property that is concentration-dependent therefore measurements of wetting properties can be measured at concentrations that are higher or lower.
In one method, an optical contact angle goniometer may be used to measure the contact angle. This device uses a digital camera and software to extract the contact angle by analyze the contour shape of a sessile droplet of liquid on a surface.
as §1
In addition to surface tension and surface dynamics, the wetting properties of the 6-((2-butyloctyl)oxy)-N,N-dimethyl-6-oxohexan-1-aminium 4-methylbenzenesulfonate from Example 2a were tested on various surfaces.

[4] abbreviates: substrate Polyethylene terephthalate.

Take `CCCCCCC(CCCC)COC(=O)CCCCCN(C)C.Cl` (stereo not shown) [Example 3a, 6-((2-butyloctyl)oxy)-N,N-dimethyl-6-oxohexan-1-aminium chloride]: the “minimum surface tension that can be reached (plateau / asymptotic value)” value in series [1] (23° C.) is on record as “about 29 mN/m”.
Take `CCCCCCC(CCCC)COC(=O)CCCCC[N+](C)(C)C.[I-]` (stereo not shown) [Example 1a, 6-((2-butyloctyl)oxy)-N,N,N-trimethyl-6-oxohexan-1-aminium iodide]: the “critical micelle concentration (CMC), not clearly determined up to this concentration” value in series [1] (23° C., pH=7, Wilhelmy plate) is greater than 10 mg/mL. Also, the “surface tension at the CMC” value in series [1] is recorded as no more than 27 mN/m. For the same compound, the “minimum surface tension that can be reached (plateau / asymptotic value)” value in series [1] (23° C.) was “about 27 mN/m”.
`CCCCCCC(CCCC)COC(=O)CCCCCN(C)C.Cc1ccc(S(=O)(=O)O)cc1` (stereo not shown) [Example 2a, 6-((2-butyloctyl)oxy)-N,N-dimethyl-6-oxohexan-1-aminium 4-methylbenzenesulfonate]: the dynamic surface tension entry in series [2] (surface age 10 ms) is given as “about 46 mN/m”; in series [2] (surface age 100 ms), “about 30 mN/m”; in series [2] (surface age 8,000 ms), “about 27 mN/m”. The “CA of Surfactant (contact angle)” value is recorded as 13.5 ° in series [3] (substrate Nylon), 7.7 ° in series [3] (setting [4]), 24.3 ° in series [3] (substrate Polyethylene-HD) and 48.2 ° in series [3] (substrate Teflon). In addition, the “surface tension at the CMC” value in series [1] is no more than 30 mN/m. In addition, the “minimum surface tension that can be reached (plateau / asymptotic value)” value in series [1] (23° C.) is on record as “about 27 mN/m”. Besides, the “critical micelle concentration (CMC)” value in series [1] (23° C., pH=7, Wilhelmy plate) is on record as “about 0.97 mmol”.
Take `CCCCCCC(CCCC)COC(=O)CCCCC[N+](C)(C)CCCCS(=O)(=O)[O-]` (stereo not shown) [Example 4a, 4-((6-((2-butyloctyl)oxy)-6-oxohexyl)dimethylammonio)butane-1-sulfonate]: the values for the dynamic surface tension result in series [2] (surface age 10 ms), in series [2] (surface age 100 ms) and in series [2] (surface age 8,000 ms) were “about 66 mN/m”, “about 36 mN/m” and “about 32 mN/m”, respectively. The “CA of Surfactant (contact angle)” value is reported as 28.7 ° in series [3] (substrate Nylon), 29.8 ° in series [3] (setting [4]), 44.4 ° in series [3] (substrate Polyethylene-HD) and 62.2 ° in series [3] (substrate Teflon). In addition, the “surface tension at the CMC” value in series [1] was no more than 32 mN/m. In series [1] (23° C.), the “minimum surface tension that can be reached (plateau / asymptotic value)” value is on record as “about 32 mN/m”. In series [1] (23° C., pH=7, Wilhelmy plate), the “critical micelle concentration (CMC)” value is given as “about 0.54 mmol”.
Turning to `CCCCCCC(CCCC)COC(=O)CCCCC[N+](C)(C)[O-]` (stereo not shown) [Example 5a, 2-butyloctyl 6-(dimethylamino)hexanoate N-oxide], the dynamic surface tension result in series [2] (surface age 10 ms) is “about 60 mN/m”; in series [2] (surface age 1,000 ms), “about 30 mN/m”; in series [2] (surface age 8,000 ms), “about 28 mN/m”. Further, the “CA of Surfactant (contact angle)” value in series [3] (substrate Nylon) is 38.5 °; in series [3] (setting [4]), 9.2 °; in series [3] (substrate Polyethylene-HD) it was 31.6 ° and 31.9 °; in series [3] (substrate Teflon), 41.5 ° and 41.0 °. Besides, the “surface tension at the CMC” value in series [1] was no more than 28 mN/m. The “minimum surface tension that can be reached (plateau / asymptotic value)” value in series [1] (23° C.) is on record as “about 28 mN/m”. Also, the “critical micelle concentration (CMC)” value in series [1] (23° C., pH=7, Wilhelmy plate) is “about 0.29 mmol”.
Take `CCCCCCC(CCCC)COC(=O)CCCCCN.Cl` (stereo not shown) [Example 6a, 6-((2-butyloctyl)oxy)-6-oxohexan-1-aminium chloride]: the dynamic surface tension result in series [2] (surface age 10 ms) is on record as “about 69 mN/m”; in series [2] (surface age 1,000 ms), “about 49 mN/m”; in series [2] (surface age 8,000 ms), “about 29 mN/m”. Also, the “CA of Surfactant (contact angle)” value in series [3] (substrate Nylon) came to 24.5 °; in series [3] (setting [4]), 20.1 °; in series [3] (substrate Polyethylene-HD), 25.8 °; in series [3] (substrate Teflon), 48.7 °. Moreover, the “surface tension at the CMC” value in series [1] is listed as no more than 30 mN/m. The “minimum surface tension that can be reached (plateau / asymptotic value)” value in series [1] (23° C.) is listed as “about 27 mN/m”. Moreover, in series [1] (23° C., pH=7, Wilhelmy plate), the “critical micelle concentration (CMC)” value was “about 0.15 mmol”.
In the case of `CCCCCCC(CCCC)COC(=O)CCCCCN.Cc1ccc(S(=O)(=O)O)cc1` (stereo not shown) [Example 7a, 6-((2-butyloctyl)oxy)-6-oxohexan-1-aminium 4-methylbenzenesulfonate], the dynamic surface tension entry in series [2] (surface age 10 ms) is “about 46 mN/m”; in series [2] (surface age 100 ms), “about 30 mN/m”; in series [2] (surface age 8,000 ms), “about 27 mN/m”. In addition, the “CA of Surfactant (contact angle)” value is 12.6 ° in series [3] (substrate Nylon), 13.2 ° in series [3] (setting [4]), 14.6 ° in series [3] (substrate Polyethylene-HD) and 49.4 ° in series [3] (substrate Teflon). The surface tension in series [1] (at a concentration of about 1.0 mmol or greater) is on record as no more than 28.5 mN/m. For the same compound, the “surface tension at the CMC” value in series [1] is no more than 30 mN/m. The “minimum surface tension that can be reached (plateau / asymptotic value)” value in series [1] (23° C.) is given as “about 27 mN/m”. Besides, in series [1] (23° C., pH=7, Wilhelmy plate), the “critical micelle concentration (CMC)” value is listed as “about 2.12 mmol”.

As usually defined, the surface tension is the work needed to enlarge the surface of a liquid by unit area.
